According to ChEMBL document CHEMBL1201862, “PubChem BioAssay data set” (2004):
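Where inhibition never reached the appropriate level, the endpoint shown equals the highest concentration tested. Otherwise, values were interpolated linearly from a five-concentration, 48-hour dose response in 96-well plates. At the GI50, growth is halved.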 Activity calls are given as the source filed them. Cut-off read from the data, not from the text of the source: active = GI50 up to about 1.1 µM and inactive = higher.

Columns and labels:
Assay in all cases: inhibition of tumour cell growth, NCI panel, 48 h
[1] = tested on: SK-OV-3
[2] = tested on: NCI-H23
[3] = tested on: Malme-3M
[4] = tested on: KM12
[5] = tested on: SW-620
[6] = tested on: M14
[7] = tested on: COLO 205
[8] = tested on: U-251
[9] = tested on: RPMI-8226
[10] = tested on: HL-60
[11] = tested on: NCI/ADR-RES
[12] = tested on: OVCAR-4
[13] = tested on: HOP-92
[14] = tested on: SK-MEL-2
[15] = tested on: T47D
[16] = tested on: ACHN
[17] = tested on: NCI-H460
[18] = tested on: MCF7
[19] = tested on: SK-MEL-28
[20] = tested on: SF-539
[21] = tested on: CAKI-1
[22] = tested on: SNB-19
[23] = tested on: 786-0
[24] = tested on: IGROV-1
[25] = tested on: SK-MEL-5
[26] = tested on: HOP-62
[27] = tested on: DU-145
[28] = tested on: SF-268
[29] = tested on: OVCAR-5
[30] = tested on: OVCAR-8
[31] = tested on: NCI-H226
[32] = tested on: MDA-MB-231
[33] = tested on: SN12C
[34] = tested on: UO-31
[35] = tested on: A498
[36] = tested on: HT-29
[37] = tested on: K562
[38] = tested on: PC-3
[39] = tested on: SR
[40] = tested on: MOLT-4
[41] = tested on: SF-295
[42] = tested on: MDA-N
[43] = tested on: TK-10
[44] = tested on: CCRF-CEM
[45] = tested on: A549
[46] = tested on: HCT-116
[47] = tested on: UACC-257
[48] = tested on: LOX IMVI
[49] = tested on: UACC-62
[50] = tested on: HCC 2998
[51] = tested on: MDA-MB-435
[52] = tested on: SNB-75
[53] = tested on: HCT-15
[54] = tested on: RXF 393
[55] = tested on: BT-549
[56] = tested on: EKVX
[57] = tested on: NCI-H522
[58] = tested on: Hs-578T
[59] = tested on: OVCAR-3

CCN1CCC(O)(/C=C/c2ccc(C)cc2C)C(C(=O)/C=C/c2ccc(C)cc2C)C1 (stereo unspecified)
GI50 [1]: 9.57 µM (inactive)
GI50 [2]: 2.77 µM (inactive)
GI50 [3]: 5.82 µM (inactive)
GI50 [4]: 2.33 µM (inactive)
GI50 [5]: 3.16 µM (inactive)
GI50 [6]: 3.55 µM (inactive)
GI50 [7]: 1.98 µM (inactive)
GI50 [8]: 3.39 µM (inactive)
GI50 [9]: 4.76 µM (inactive)
GI50 [10]: 3.35 µM (inactive)
GI50 [11]: 2.46 µM (inactive)
GI50 [12]: 2.99 µM (inactive)
GI50 [13]: 1.85 µM (inactive)
GI50 [14]: 4.26 µM (inactive)
GI50 [15]: 2.39 µM (inactive)
GI50 [16]: 1.83 µM (inactive)
GI50 [17]: 1.35 µM (inactive)
GI50 [18]: 2.69 µM (inactive)
GI50 [19]: 4.7 µM (inactive)
GI50 [20]: 1.92 µM (inactive)
GI50 [21]: 5.09 µM (inactive)
GI50 [22]: 4.03 µM (inactive)
GI50 [23]: 1.71 µM (inactive)
GI50 [24]: 2.89 µM (inactive)
GI50 [25]: 3.04 µM (inactive)
GI50 [26]: 2.89 µM (inactive)
GI50 [27]: 4.59 µM (inactive)
GI50 [28]: 2.4 µM (inactive)
GI50 [29]: 4.29 µM (inactive)
GI50 [30]: 2.09 µM (inactive)
GI50 [31]: 2.77 µM (inactive)
GI50 [32]: 2.23 µM (inactive)
GI50 [33]: 2.72 µM (inactive)
GI50 [34]: 2.35 µM (inactive)
GI50 [35]: 9.59 µM (inactive)
GI50 [36]: 2.16 µM (inactive)
GI50 [37]: 3.13 µM (inactive)
GI50 [38]: 2.5 µM (inactive)
GI50 [39]: 2.37 µM (inactive)
GI50 [40]: 1.28 µM (inactive)
GI50 [41]: 2.08 µM (inactive)
GI50 [42]: 2.2 µM (inactive)
GI50 [43]: 1.64 µM (inactive)
GI50 [44]: 1.82 µM (inactive)
GI50 [45]: 4 µM (inactive)
GI50 [46]: 2.22 µM (inactive)
GI50 [47]: 4.99 µM (inactive)
GI50 [48]: 1.76 µM (inactive)
GI50 [49]: 3.41 µM (inactive)
GI50 [50]: 1.69 µM (inactive)
GI50 [51]: 2.51 µM (inactive)
GI50 [52]: 5.79 µM (inactive)
GI50 [53]: 1.93 µM
GI50 [54]: 3.21 µM (inactive)
GI50 [55]: 2.79 µM (inactive)
GI50 [56]: 2.74 µM (inactive)
GI50 [57]: 1.84 µM (inactive)
GI50 [58]: 2.09 µM (inactive)
GI50 [59]: 2.53 µM (inactive)

O=C1N=NC(=O)N1c1cc(C(F)(F)F)cc(C(F)(F)F)c1
GI50 [1]: 3.81 µM (inactive)
GI50 [2]: 2.35 µM (inactive)
GI50 [3]: 3.83 µM (inactive)
GI50 [4]: 3.93 µM (inactive)
GI50 [5]: 5.46 µM (inactive)
GI50 [6]: 5.7 µM (inactive)
GI50 [7]: 1.85 µM (inactive)
GI50 [8]: 3.12 µM (inactive)
GI50 [9]: 2.89 µM (inactive)
GI50 [10]: 3.61 µM (inactive)
GI50 [11]: 2.97 µM (inactive)
GI50 [12]: 4.21 µM (inactive)
GI50 [13]: 2.75 µM (inactive)
GI50 [14]: 2.2 µM (inactive)
GI50 [15]: 3.61 µM (inactive)
GI50 [16]: 4.04 µM (inactive)
GI50 [17]: 3.23 µM (inactive)
GI50 [18]: 3.35 µM (inactive)
GI50 [19]: 10.6 µM (inactive)
GI50 [20]: 4.86 µM (inactive)
GI50 [21]: 2.94 µM (inactive)
GI50 [22]: 4.03 µM (inactive)
GI50 [23]: 4.68 µM (inactive)
GI50 [24]: 3.83 µM (inactive)
GI50 [25]: 2.61 µM (inactive)
GI50 [26]: 4.17 µM (inactive)
GI50 [27]: 5.28 µM (inactive)
GI50 [28]: 3.7 µM (inactive)
GI50 [29]: 4.09 µM (inactive)
GI50 [30]: 3.38 µM (inactive)
GI50 [31]: 2.55 µM (inactive)
GI50 [32]: 2.38 µM (inactive)
GI50 [33]: 3.75 µM (inactive)
GI50 [34]: 2.44 µM (inactive)
GI50 [35]: 5.4 µM (inactive)
GI50 [36]: 2.73 µM (inactive)
GI50 [37]: 3.37 µM (inactive)
GI50 [38]: 2.65 µM (inactive)
GI50 [39]: 4.69 µM (inactive)
GI50 [40]: 3.37 µM (inactive)
GI50 [41]: 2.78 µM (inactive)
GI50 [42]: 4.17 µM (inactive)
GI50 [43]: 3.68 µM (inactive)
GI50 [44]: 3.69 µM (inactive)
GI50 [45]: 2.93 µM (inactive)
GI50 [46]: 3.24 µM (inactive)
GI50 [47]: 3.16 µM (inactive)
GI50 [48]: 3.27 µM (inactive)
GI50 [49]: 5.65 µM (inactive)
GI50 [50]: 3.45 µM (inactive)
GI50 [51]: 4.38 µM (inactive)
GI50 [52]: 2.95 µM (inactive)
GI50 [53]: 3.2 µM
GI50 [54]: 3.29 µM (inactive)
GI50 [55]: 3.61 µM (inactive)
GI50 [56]: 3.24 µM (inactive)
GI50 [57]: 2.07 µM (inactive)
GI50 [58]: 3.93 µM (inactive)
GI50 [59]: 2.44 µM (inactive)

CC1=NN2C(=N)/C(=C/c3ccc(F)cc3)C(=O)N=C2S1
GI50 [1]: > 100 µM (inactive)
GI50 [2]: > 100 µM (inactive)
GI50 [3]: > 100 µM (inactive)
GI50 [4]: > 100 µM (inactive)
GI50 [5]: > 100 µM (inactive)
GI50 [6]: > 100 µM (inactive)
GI50 [7]: > 100 µM (inactive)
GI50 [8]: > 100 µM (inactive)
GI50 [9]: > 100 µM (inactive)
GI50 [10]: > 100 µM (inactive)
GI50 [11]: 13 µM (inactive)
GI50 [12]: > 100 µM (inactive)
GI50 [13]: 47.9 µM (inactive)
GI50 [14]: > 100 µM (inactive)
GI50 [15]: > 100 µM (inactive)
GI50 [16]: > 100 µM (inactive)
GI50 [17]: > 100 µM (inactive)
GI50 [18]: > 100 µM (inactive)
GI50 [19]: > 100 µM (inactive)
GI50 [20]: > 100 µM (inactive)
GI50 [21]: > 100 µM (inactive)
GI50 [22]: > 100 µM (inactive)
GI50 [23]: > 100 µM (inactive)
GI50 [24]: > 100 µM (inactive)
GI50 [25]: > 100 µM (inactive)
GI50 [26]: > 100 µM (inactive)
GI50 [27]: > 100 µM (inactive)
GI50 [28]: > 100 µM (inactive)
GI50 [29]: > 100 µM (inactive)
GI50 [30]: > 100 µM (inactive)
GI50 [31]: > 100 µM (inactive)
GI50 [32]: > 100 µM (inactive)
GI50 [33]: > 100 µM (inactive)
GI50 [34]: > 100 µM (inactive)
GI50 [35]: > 100 µM (inactive)
GI50 [36]: > 100 µM (inactive)
GI50 [37]: > 100 µM (inactive)
GI50 [38]: > 100 µM (inactive)
GI50 [39]: 69.8 µM (inactive)
GI50 [40]: > 100 µM (inactive)
GI50 [41]: > 100 µM (inactive)
GI50 [42]: > 100 µM (inactive)
GI50 [43]: > 100 µM (inactive)
GI50 [44]: > 100 µM (inactive)
GI50 [45]: > 100 µM (inactive)
GI50 [46]: > 100 µM (inactive)
GI50 [47]: > 100 µM (inactive)
GI50 [48]: > 100 µM (inactive)
GI50 [49]: > 100 µM (inactive)
GI50 [50]: 44.4 µM (inactive)
GI50 [51]: > 100 µM (inactive)
GI50 [52]: > 100 µM (inactive)
GI50 [53]: > 100 µM
GI50 [54]: > 100 µM (inactive)
GI50 [55]: > 100 µM (inactive)
GI50 [56]: > 100 µM (inactive)
GI50 [57]: > 100 µM (inactive)
GI50 [58]: > 100 µM (inactive)
GI50 [59]: > 100 µM (inactive)

CCC1CCC2C3CC=C4CC(OC(C)=O)C(N)CC4(C)C3CCC12C (stereo unspecified)
GI50 [1]: 9.53 µM (inactive)
GI50 [2]: 6 µM (inactive)
GI50 [3]: 3.49 µM (inactive)
GI50 [4]: 2.96 µM (inactive)
GI50 [5]: 3.21 µM (inactive)
GI50 [6]: 1.82 µM (inactive)
GI50 [7]: 5.18 µM (inactive)
GI50 [8]: 1.86 µM (inactive)
GI50 [9]: 2.69 µM (inactive)
GI50 [10]: 2 µM (inactive)
GI50 [11]: 5.21 µM (inactive)
GI50 [12]: 4.94 µM (inactive)
GI50 [13]: 5.02 µM (inactive)
GI50 [14]: 3.97 µM (inactive)
GI50 [15]: 5.78 µM (inactive)
GI50 [16]: 7.89 µM (inactive)
GI50 [17]: 1.87 µM (inactive)
GI50 [18]: 6.41 µM (inactive)
GI50 [19]: 3.66 µM (inactive)
GI50 [20]: 1.86 µM (inactive)
GI50 [21]: 8.55 µM (inactive)
GI50 [22]: 2.51 µM (inactive)
GI50 [23]: 2.02 µM (inactive)
GI50 [24]: 6.4 µM (inactive)
GI50 [25]: 1.82 µM (inactive)
GI50 [26]: 2.08 µM (inactive)
GI50 [27]: 2.92 µM (inactive)
GI50 [28]: 2.71 µM (inactive)
GI50 [29]: 6.21 µM (inactive)
GI50 [30]: 2.05 µM (inactive)
GI50 [31]: 20.2 µM (inactive)
GI50 [32]: 1.95 µM (inactive)
GI50 [33]: 5.3 µM (inactive)
GI50 [34]: 5.24 µM (inactive)
GI50 [35]: 5.25 µM (inactive)
GI50 [36]: 2.36 µM (inactive)
GI50 [37]: 2.05 µM (inactive)
GI50 [38]: 2.71 µM (inactive)
GI50 [39]: 2.25 µM (inactive)
GI50 [40]: 2.37 µM (inactive)
GI50 [41]: 3.26 µM (inactive)
GI50 [42]: 2.7 µM (inactive)
GI50 [43]: 2.66 µM (inactive)
GI50 [44]: 2.47 µM (inactive)
GI50 [45]: 2.07 µM (inactive)
GI50 [46]: 2.46 µM (inactive)
GI50 [47]: 2.17 µM (inactive)
GI50 [48]: 1.8 µM (inactive)
GI50 [49]: 4.89 µM (inactive)
GI50 [50]: 1.59 µM (inactive)
GI50 [51]: 2.35 µM (inactive)
GI50 [52]: 1.89 µM (inactive)
GI50 [53]: 3.3 µM
GI50 [54]: 1.85 µM (inactive)
GI50 [55]: 4.93 µM (inactive)
GI50 [56]: 4.62 µM (inactive)
GI50 [57]: 2.51 µM (inactive)
GI50 [58]: 1.93 µM (inactive)
GI50 [59]: 5.85 µM (inactive)
